{"source": "patent US5132328A", "about": "“Alcohol and ether derivatives” (Imperial Chemical Industries PLC, priority 1988, dated 1992)", "key": {"[1]": {"molecular_target": "T1, 5-LO (Homo sapiens, UniProt P09917)", "T1 construct": "heparinised human blood, prior to challenge with the calcium ionophore A23187; endogenous in cells; host or cells: heparinised human whole blood (blood cells, A23187-challenged)", "T1 sequence (P09917 1-674)": "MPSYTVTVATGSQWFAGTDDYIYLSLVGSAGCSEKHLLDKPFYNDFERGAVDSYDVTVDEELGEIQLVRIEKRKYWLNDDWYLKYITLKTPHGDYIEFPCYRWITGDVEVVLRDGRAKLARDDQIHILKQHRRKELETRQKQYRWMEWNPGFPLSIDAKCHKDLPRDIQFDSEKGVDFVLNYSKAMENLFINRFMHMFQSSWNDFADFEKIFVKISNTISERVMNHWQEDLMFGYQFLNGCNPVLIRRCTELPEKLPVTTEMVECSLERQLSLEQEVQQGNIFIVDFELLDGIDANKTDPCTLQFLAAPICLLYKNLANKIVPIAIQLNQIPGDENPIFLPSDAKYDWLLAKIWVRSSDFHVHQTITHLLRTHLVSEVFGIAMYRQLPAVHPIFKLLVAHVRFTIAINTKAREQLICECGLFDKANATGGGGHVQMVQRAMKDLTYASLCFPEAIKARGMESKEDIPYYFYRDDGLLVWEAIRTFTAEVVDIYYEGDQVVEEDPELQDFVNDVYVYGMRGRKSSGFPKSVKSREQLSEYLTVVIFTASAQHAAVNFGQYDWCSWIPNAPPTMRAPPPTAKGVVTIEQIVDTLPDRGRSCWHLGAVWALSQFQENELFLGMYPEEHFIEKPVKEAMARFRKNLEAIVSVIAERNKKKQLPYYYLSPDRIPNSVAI", "assay": "Test (b): heparinised human blood challenged with A23187, LTB4 radioimmunoassay", "format": "cell-based", "description": "(§1) (b) An in vitro assay system involving incubating a test compound with heparinised human blood, prior to challenge with the calcium ionophore A23187 and then indirectly measuring the inhibitory effects on 5-LO by assaying the amount of LTB4 using the specific radioimmunoassay described by Carey and Forder (F. Carey and R. A. Forder, Brit. J. Pharmacol. 1985, 84, 34P) which involves the use of a protein-LTB4 conjugate produced using the procedure of Young et alia (Prostaglandins, 1983, 26(4), 605-613). The effects of a test compound on the enzyme cyclooxygenase (which is involved in the alternative metabolic pathway for arachidonic acid and gives rise to prostaglandins, thromboxanes and related metabolites) may be measured at the same time using the specific radioimmunoassay for thromboxane B2 (TxB2) described by Carey and Forder (see above). This test provides an indication of the effects of a test compound against 5-LO and also cyclooxygenase in the presence of blood cells and proteins. It permits the selectivity of the inhibitory effect on 5-LO or cyclooxygenase to be assessed."}, "[2]": {"molecular_target": "T2, 5-LO (Rattus norvegicus, UniProt P12527)", "T2 construct": "blood collection, heparinisation, challenge with A23187 and radioimmunoassay of LTB4 and TxB2; endogenous in cells", "T2 sequence (P12527 1-673)": "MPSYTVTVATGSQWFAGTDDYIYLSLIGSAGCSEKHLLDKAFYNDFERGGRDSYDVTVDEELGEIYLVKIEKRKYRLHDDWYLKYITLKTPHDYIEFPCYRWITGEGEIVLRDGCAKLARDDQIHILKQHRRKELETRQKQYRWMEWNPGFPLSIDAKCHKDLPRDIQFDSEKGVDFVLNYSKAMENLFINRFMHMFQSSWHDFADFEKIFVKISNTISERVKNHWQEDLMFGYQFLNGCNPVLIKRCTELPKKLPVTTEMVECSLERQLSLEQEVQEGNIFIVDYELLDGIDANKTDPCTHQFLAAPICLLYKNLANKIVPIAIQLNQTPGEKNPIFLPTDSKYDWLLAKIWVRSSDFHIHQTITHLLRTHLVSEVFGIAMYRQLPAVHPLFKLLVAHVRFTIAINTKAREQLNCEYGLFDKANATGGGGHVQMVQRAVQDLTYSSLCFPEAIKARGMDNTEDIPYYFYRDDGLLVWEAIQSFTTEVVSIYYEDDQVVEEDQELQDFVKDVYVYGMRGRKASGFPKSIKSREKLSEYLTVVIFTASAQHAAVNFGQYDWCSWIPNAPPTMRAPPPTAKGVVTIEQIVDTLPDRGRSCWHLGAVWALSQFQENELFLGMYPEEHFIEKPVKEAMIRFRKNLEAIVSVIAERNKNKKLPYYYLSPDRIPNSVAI", "assay": "Test (c): ex vivo assay after (usually oral) administration, blood challenged with A23187, LTB4 radioimmunoassay", "format": "in vivo", "description": "(c) An ex vivo assay system, which is a variation of test b) above, involving administration of a test compound (usually orally as the suspension produced when a solution of the test compound in dimethylsulphoxide is added to carboxymethylcellulose), blood collection, heparinisation, challenge with A23187 and radioimmunoassay of LTB4 and TxB2. This test provides an indication of the bioavailability of a test compound as an inhibitor of 5-LO or cyclooxygenase."}, "[3]": {"molecular_target": "T3, cyclooxygenase (Homo sapiens, UniProt P23219)", "T3 construct": "heparinised human blood, prior to challenge with the calcium ionophore A23187; endogenous in cells; host or cells: heparinised human whole blood (platelets and other blood cells, A23187-challenged)", "T3 sequence (P23219 24-599)": "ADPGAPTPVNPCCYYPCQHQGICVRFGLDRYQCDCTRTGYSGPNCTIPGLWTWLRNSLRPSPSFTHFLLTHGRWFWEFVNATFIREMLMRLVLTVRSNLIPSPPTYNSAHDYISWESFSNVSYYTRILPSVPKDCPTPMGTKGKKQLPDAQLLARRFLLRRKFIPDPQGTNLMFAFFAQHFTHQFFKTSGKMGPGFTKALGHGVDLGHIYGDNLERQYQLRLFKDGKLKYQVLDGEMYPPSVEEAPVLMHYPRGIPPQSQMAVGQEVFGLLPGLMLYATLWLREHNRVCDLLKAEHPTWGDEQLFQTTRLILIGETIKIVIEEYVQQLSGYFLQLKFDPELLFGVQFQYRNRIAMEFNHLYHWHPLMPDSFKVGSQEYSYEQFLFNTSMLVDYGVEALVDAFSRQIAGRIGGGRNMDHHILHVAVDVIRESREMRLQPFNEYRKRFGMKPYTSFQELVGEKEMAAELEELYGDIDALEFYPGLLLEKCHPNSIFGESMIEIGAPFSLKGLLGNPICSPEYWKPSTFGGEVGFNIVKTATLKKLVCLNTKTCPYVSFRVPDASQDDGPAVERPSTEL", "assay": "Test (b): heparinised human blood challenged with A23187, TxB2 radioimmunoassay", "format": "cell-based", "description": "as §1"}}}
{"molecule": "CCC(COC)(OC)c1cccc(OCc2ccc3ccccc3c2)c1", "note": "(stereo not drawn) [2-methoxy-2-[3-(naphth-2-ylmethoxy)phenyl]but-1-yl methyl ether]", "values": [{"measurement": "IC50", "setting": "[1]", "value": 500, "unit": "nM"}, {"measurement": "ED50", "setting": "[2]", "value": 30, "unit": "mg/kg"}, {"measurement": "IC50", "setting": "[3]", "value": "> 40000", "unit": "nM"}]}
